In brackets after ≈: the same amount, converted by molar mass. Activity calls are given as the source filed them. The rule behind the calls is not given here.

As a reminder, the inhibition is the share of the control response that was lost under treatment. The MIC is the least concentration at which growth counts as inhibited. Usually HC50 stands for the concentration giving 50% haemolysis. High values mean weaker haemolysis, low ones stronger haemolysis.

Series [1] deals with Staphylococcus aureus. Description: Inhibition of biofilm formation in methicillin-resistant Staphylococcus aureus 15 at 64 ug/ml incubated for 24 hrs by crystalline violet staining based analysis. To be noted: dose 64.0 µg/ml. In kind it is functional.
Series [2] has as its system Micrococcus luteus. Description: Antibacterial activity against Micrococcus luteus assessed as inhibition of bacterial growth incubated for 16 to 20 hrs by CLSI based microdilution method. Particulars: time 16-20 hrs. In kind it is functional. Background: Dilution methods test growth across graded concentrations, often in twofold steps.
In series [3] the test system is Staphylococcus aureus. Description: Inhibition of biofilm formation in methicillin-resistant Staphylococcus aureus 15 assessed as destruction of formed biofilm at 128 ug/ml incubated for 24 hrs by crystal violet staining based analysis relative to control. In kind it is functional.
The subject of series [4] is Staphylococcus aureus. Nature of the series: Bactericidal activity against methicillin-resistant Staphylococcus aureus 15 at 4 to 8 times MIC measured at 24 hrs by time kill assay. Type of series: functional, organism-based.
Series [5] concerns Staphylococcus aureus. Nature of the series: Inhibition of biofilm formation in Staphylococcus aureus ATCC 29213 at 64 ug/ml incubated for 24 hrs by crystalline violet staining based analysis. In kind it is functional. Particulars: dose 64.0 µg/ml.
Series [6] has as its system Enterococcus faecalis. Nature of the series: Antibacterial activity against Enterococcus faecalis ATCC 29212 assessed as inhibition of bacterial growth incubated for 16 to 20 hrs by CLSI based microdilution method. In kind it is functional. To be noted: time 16-20 hrs.
The subject of series [7] is Cell membrane. Description: Disruption of membrane integrity in methicillin-resistant Staphylococcus aureus 15 assessed as increase in fluorescence intensity at 32 ug/ml measured immediately by Sytox green based fluorescence method. Particulars: dose 32.0 µg/ml. In kind it is subcellular.
The subject of series [8] is Cell membrane. Nature of the series: Induction of membrane depolarization in methicillin-resistant Staphylococcus aureus 15 assessed as increase in fluorescence intensity at 32 ug/ml by DiSC3-5 dye based fluorescence method. Type of series: subcellular. Particulars: dose 32.0 µg/ml.
Series [9] deals with Staphylococcus aureus. Nature of the series: Induction of drug resistance in Staphylococcus aureus ATCC 29213 assessed as increase in MIC at 0.5 times MIC measured after 2 days by CLSI based microdilution method. Particulars: time 2.0 day. In kind it is functional, organism-based.
Series [10] in a line: Hemolytic activity in sheep RBC incubated for 1 hr by absorbance based analysis. Type of series: toxicity, cell-based, Ovis aries, Erythrocyte. Particulars: sheep red blood cells.
Series [11] concerns Staphylococcus aureus. Nature of the series: Antibacterial activity against Staphylococcus aureus ATCC 29213 assessed as inhibition of bacterial growth incubated for 16 to 20 hrs by CLSI based microdilution method. Type of series: functional. To be noted: time 16-20 hrs.
The test system of series [12] is Salmonella enterica. Description: Antibacterial activity against Salmonella enterica 8389 assessed as inhibition of bacterial growth incubated for 16 to 20 hrs by CLSI based microdilution method. In kind it is functional. Particulars: time 16-20 hrs.
In series [13] the test system is Escherichia coli. Description: Antibacterial activity against Escherichia coli ATCC 25922 assessed as inhibition of bacterial growth incubated for 16 to 20 hrs by CLSI based microdilution method. In kind it is functional. Particulars: time 16-20 hrs.
In series [14] the test system is Salmonella enterica. Nature of the series: Antibacterial activity against Salmonella enterica H9812 assessed as inhibition of bacterial growth incubated for 16 to 20 hrs by CLSI based microdilution method. In kind it is functional. Particulars: time 16-20 hrs.
A short description of series [15]: Selectivity index, ratio of HC50 for hemolytic activity in sheep RBC to MIC for antibacterial activity against Staphylococcus aureus ATCC 29213. In kind it is toxicity. Particulars: sheep red blood cells.

On to `CN[C@H](CC(C)C)C(=O)N[C@H]1C(=O)N[C@@H](CC(N)=O)C(=O)N[C@H]2C(=O)N[C@H]3C(=O)N[C@H](C(=O)N[C@H](C(=O)O)c4cc(O)cc(O)c4-c4cc3ccc4O)[C@H](O)c3ccc(c(Cl)c3)Oc3cc2cc(c3O[C@@H]2O[C@H](CO)[C@@H](O)[C@H](O)[C@H]2O[C@H]2C[C@](C)(N)[C@H](O)[C@H](C)O2)Oc2ccc(cc2Cl)[C@H]1O` [VANCOMYCIN], for which the inhibition entry in series [1] and in series [5] was “inactive” throughout. Further, the minimal inhibitory concentration (MIC) came out at 2 µg/mL (≈ 1.38 µM) in [2] and 1 µg/mL (≈ 0.69 µM) in series [6]. For the same compound, in series [3], the inhibition at 128 µg/mL amounted to 60%. For the same compound, the outcome in [4] was inactive.
As to `CC[C@H](C)[C@H](NC(=O)CN)C(=O)NCC(=O)N[C@@H](C)C(=O)N[C@H](C(=O)N[C@@H](CC(C)C)C(=O)N[C@@H](CCCCN)C(=O)N[C@H](C(=O)N[C@@H](CC(C)C)C(=O)N[C@H](C(=O)N[C@H](C(=O)NCC(=O)N[C@@H](CC(C)C)C(=O)N1CCC[C@H]1C(=O)N[C@@H](C)C(=O)N[C@@H](CC(C)C)C(=O)N[C@H](C(=O)N[C@@H](CO)C(=O)N[C@@H](Cc1c[nH]c2ccccc12)C(=O)N[C@H](C(=O)N[C@@H](CCCCN)C(=O)N[C@@H](CCCNC(=N)N)C(=O)N[C@@H](CCCCN)C(=O)N[C@@H](CCCNC(=N)N)C(=O)N[C@@H](CCC(N)=O)C(=O)N[C@@H](CCC(N)=O)C(N)=O)[C@@H](C)CC)[C@@H](C)CC)[C@@H](C)O)[C@@H](C)O)C(C)C)C(C)C`, the outcome in [7] and in [8] was Active.
For the compound `CCn1cc(C(=O)O)c(=O)c2cc(F)c(N3CCNCC3)cc21`, in series [9], the result was Active.
On to `C=CCc1cccc(Oc2ccc(C(=O)CC)cc2)c1OCC[N+](C)(C)CC(=O)NCCC.[Br-]`, for which, in [10], the HC50 at 1 h is 634 µg/mL. Besides, the MIC in series [11] is 32 µg/mL; in series [12], more than 128 µg/mL; in [2], 64 µg/mL; in series [13] it was 128 µg/mL; in [14], 128 µg/mL; in series [6] it was 32 µg/mL. The selectivity ratio in series [15] came out at 19.8.
In series [10], `C=CCc1cccc(Oc2ccc(C(=O)CC)cc2)c1OCCCC[N+](C)(C)CC(=O)N1CCOCC1.[Br-]` came in with an HC50 at 1 h of 578 µg/mL. In addition, the MIC is 64 µg/mL in series [11]; more than 128 µg/mL in [12]; 64 µg/mL in [2]; more than 128 µg/mL in series [13]; more than 128 µg/mL in series [14]; 64 µg/mL in series [6]. Besides, the selectivity ratio in series [15] is 9.
Compound `C=CCc1cccc(Oc2ccc(C(=O)CC)cc2)c1OCCCC[N+](C)(C)CC(=O)NCCCCC.[Br-]` gave an HC50 at 1 h in series [10] of 564 µg/mL. Besides, the MIC was 4 µg/mL in series [11]; 64 µg/mL in [12]; 16 µg/mL in series [2]; 32 µg/mL in series [13]; 128 µg/mL in series [14]; 8 µg/mL in series [6]. Also, the selectivity ratio in series [15] came out at 141.
Compound `C=CCc1cccc(Oc2ccc(C(=O)CC)cc2)c1OCC[N+](C)(C)CC(=O)N(CCC)CCC.[Br-]` showed an HC50 at 1 h in series [10] of 1110 µg/mL. For the same compound, the MIC in series [11] came out at 8 µg/mL; in [12] it was 32 µg/mL; in series [2], 16 µg/mL; in series [13], 64 µg/mL; in series [14] it was 64 µg/mL; in series [6], 16 µg/mL. The selectivity ratio in series [15] turned out to be 138.
Compound `C=CCc1cccc(Oc2ccc(C(=O)CC)cc2)c1OCCCC[N+](C)(C)CC(=O)NCCCCCC.[Br-]` registered an HC50 at 1 h in series [10] of 642 µg/mL. The minimal inhibitory concentration (MIC) in series [11] came to 4 µg/mL; in [12] it was 64 µg/mL; in series [2] it was 64 µg/mL; in [13], 32 µg/mL; in series [14], 32 µg/mL; in series [6], 16 µg/mL. Moreover, the selectivity ratio in [15] was 160.
In [10], `C=CCc1cccc(Oc2ccc(C(=O)CC)cc2)c1OCCC[N+](C)(C)CC(=O)NCCCC.[Br-]` returned an HC50 at 1 h of 507 µg/mL. The MIC came out at 8 µg/mL in [11]; 128 µg/mL in series [12]; 32 µg/mL in series [2]; 32 µg/mL in [13]; 64 µg/mL in [14]; 16 µg/mL in [6]. Moreover, in series [15], the selectivity ratio was found to be 63.3.
`C=CCc1cccc(Oc2ccc(C(=O)CC)cc2)c1OCCCC[N+](C)(C)CC(=O)N(CCC)CCC.[Br-]`: the HC50 at 1 h in [10] was determined as 933 µg/mL. Besides, the MIC in [11] was found to be 32 µg/mL; in series [12], 128 µg/mL; in series [2], 64 µg/mL; in [13], 64 µg/mL; in series [14] it was 128 µg/mL; in [6], 32 µg/mL. In addition, in series [15], the selectivity ratio came out at 29.1.
`C=CCc1cccc(Oc2ccc(C(=O)CC)cc2)c1OCCCC[N+](C)(C)CC(=O)NCCC.[Br-]` yielded an HC50 at 1 h in series [10] of 823 µg/mL. Further, the MIC in [11] was found to be 32 µg/mL; in [12], 128 µg/mL; in [2], 128 µg/mL; in [13] it was 64 µg/mL; in series [14] it was 128 µg/mL; in [6], 64 µg/mL. For the same compound, the selectivity ratio in [15] stood at 25.7.
For `C=CCc1cccc(Oc2ccc(C(=O)CC)cc2)c1OCCCC[N+](C)(C)CC(=O)N(CC)CC.[Br-]`, the HC50 at 1 h in [10] is more than 1280 µg/mL. Also, the MIC in [11] is 32 µg/mL; in series [12], more than 128 µg/mL; in [2] it was 64 µg/mL; in series [13] it was 64 µg/mL; in series [14] it was more than 128 µg/mL; in series [6], 32 µg/mL. The selectivity ratio in [15] was more than 40.
For `C=CCc1cccc(Oc2ccc(C(=O)CC)cc2)c1OCC[N+](C)(C)CC(=O)NCC.[Br-]`, the concentration for 50% haemolysis (HC50) at 1 h in [10] came out at 509 µg/mL. The MIC in series [11] came to 32 µg/mL; in series [12], 128 µg/mL; in series [2], 32 µg/mL; in [13], 64 µg/mL; in series [14] it was 128 µg/mL; in series [6] it was 32 µg/mL. In [15], the selectivity ratio turned out to be 15.9.
On to `C=CCc1cccc(Oc2ccc(C(=O)CC)cc2)c1OCCC[N+](C)(C)CC(=O)NCC.[Br-]`, for which, in series [10], the HC50 at 1 h stood at 501 µg/mL. In addition, the MIC in series [11] was 64 µg/mL; in [12] it was more than 128 µg/mL; in [2] it was 64 µg/mL; in [13], 64 µg/mL; in [14] it was more than 128 µg/mL; in [6] it was 64 µg/mL. Further, in series [15], the selectivity ratio is 7.8.

The values above are taken from ChEMBL document CHEMBL5236634, “Membrane-Targeting Neolignan-Antimicrobial Peptide Mimic Conjugates to Combat Methicillin-Resistant Staphylococcus aureus (MRSA) Infections” (J Med Chem, 2022).
